Reference: ChEMBL document CHEMBL1201862, “PubChem BioAssay data set” (2004)
Counter-ions that a name gives are not always drawn.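 96-well plates; 48 h exposure; 5 concentrations. Endpoints by linear interpolation between flanking doses. Not reached: highest tested concentration assigned. Abbreviation: GI50, concentration required for 50% inhibition of growth.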 Calls of active or inactive are those of the source. Rule as the data show it: active = GI50 up to about 1.1 µM and inactive = higher.

Legend:
Experiment in all cases: growth of human tumour cells (NCI), 48 h
RXF 631 = tested on: RXF 631
DMS-114 = tested on: DMS-114
LXFL 529 = tested on: LXFL 529
M19-MEL = tested on: M19-MEL
SNB-78 = tested on: SNB-78
MCF7 = tested on: MCF7
NCI/ADR-RES = tested on: NCI/ADR-RES
DU-145 = tested on: DU-145
Hs-578T = tested on: Hs-578T

Measured: GI50

C=CC(OCC)(OCC)OCC
inactive: RXF 631 > 100 µM | DMS-114 15.6 µM | LXFL 529 77.3 µM | M19-MEL > 100 µM | SNB-78 > 100 µM

CCOC(=O)CNC(=O)N(CC)C12CC3CC(CC(C3)C1)C2
inactive: MCF7 148 µM | DMS-114 107 µM | NCI/ADR-RES 151 µM | M19-MEL 153 µM | SNB-78 166 µM

COc1ccccc1/C=C1\NC(=S)N(/C=C2\C(=O)Oc3ccccc3C2=O)C1=O
inactive: MCF7 71.4 µM | DU-145 21.1 µM | NCI/ADR-RES 24.6 µM | Hs-578T > 100 µM

CCC1C[N+]23CCc4c([nH]c5ccccc45)C2CC1CC3 (stereo not drawn)
inactive: DMS-114 53.5 µM | LXFL 529 33.8 µM | M19-MEL 52.5 µM

CN(C)CCN(/C(=N/c1ccccc1)N1CCCC1)c1ccccc1
inactive: MCF7 42.5 µM | DU-145 > 100 µM | NCI/ADR-RES 42.3 µM | Hs-578T > 100 µM

NC(=S)N/N=C/c1ccc(OC(=O)COc2ccccc2Cl)cn1
inactive: MCF7 10.5 µM | NCI/ADR-RES 15.4 µM | M19-MEL 25.9 µM | SNB-78 > 80.9 µM

NC(=O)Nc1cc(O)ccc1/N=N/c1ccc(S(=O)(=O)Nc2ccccn2)cc1
inactive: DMS-114 > 100 µM | LXFL 529 > 100 µM | M19-MEL > 100 µM | SNB-78 > 100 µM

CC1=C(C(=O)N[C@@H](CC(C)C)C(=O)O)N2C(=O)[C@@H](NC(=O)C(N)c3ccccc3)[C@H]2SC1 (stereo partly drawn)
inactive: MCF7 > 100 µM | DU-145 > 100 µM | NCI/ADR-RES > 100 µM | Hs-578T > 100 µM

O=C1OC(=O)C2C1C(c1ccccc1[N+](=O)[O-])C=C(c1ccco1)N2c1ccncc1 (stereo not drawn)
inactive: MCF7 2.1 µM | DU-145 7.01 µM | NCI/ADR-RES 18.8 µM | Hs-578T > 25.9 µM

CC(=O)N/C(=C\c1ccc(/C=C(\NC(C)=O)C2=NC3C(=O)c4ccccc4C(=O)C3N2)cc1)C1=NC2C(=O)c3ccccc3C(=O)C2N1 (stereo not drawn)
inactive: RXF 631 19.7 µM | DMS-114 8 µM | LXFL 529 42.4 µM | M19-MEL 92.3 µM | SNB-78 70.3 µM

O=C1/C(=C/c2ccc(Cl)cc2)CNC/C1=C\c1ccc(Cl)cc1
inactive: MCF7 1.52 µM | DU-145 2.65 µM | NCI/ADR-RES 2.91 µM | Hs-578T 3.47 µM

Nc1c(Cl)c([N+](=O)[O-])cc2c1OCCCCO2
inactive: MCF7 > 100 µM | DU-145 > 100 µM | NCI/ADR-RES 89.5 µM | Hs-578T > 100 µM

COc1cc(OC)c(SSCCCCS(=O)O)c(OC)c1
inactive: RXF 631 > 10 µM | DMS-114 16.6 µM | LXFL 529 12.2 µM | M19-MEL 7.52 µM | SNB-78 12.1 µM

CCC/C=C/C=C\C(=O)O[C@@H]1[C@@H](C)[C@]2(O)[C@@H]3C=C(C)C(=O)[C@H]3CC(COC(C)=O)=C[C@H]2[C@@H]2C(C)(C)[C@]12OC(C)=O
inactive: MCF7 37.8 µM | DMS-114 45.1 µM | NCI/ADR-RES 50.7 µM | M19-MEL 32.2 µM | SNB-78 44.9 µM

CSc1sc(=S)sc1SC
inactive: MCF7 > 100 µM | DMS-114 > 100 µM | NCI/ADR-RES 25.7 µM | M19-MEL > 100 µM | SNB-78 > 100 µM

CC(C)C1CNC(=O)C2(/C=N/C(C(C)C)CNC(=O)C3(/C=N/1)CCCO3)CCCO2 (stereo not drawn)
inactive: MCF7 > 10 µM | DU-145 > 10 µM | NCI/ADR-RES > 10 µM | Hs-578T > 10 µM

COC(=O)C1=CC[C@@H]2C(C(=O)O)=CO[C@@H](OC3OC(CO)C(O)C(O)C3O)[C@H]12 (stereo partly drawn)
inactive: MCF7 > 114 µM | DMS-114 > 300 µM | NCI/ADR-RES > 300 µM | M19-MEL > 300 µM | SNB-78 > 142 µM

COc1ccc(/C=C2\Oc3cc(OC(C)=O)ccc3C2=O)cc1
inactive: MCF7 > 100 µM | DU-145 > 100 µM | NCI/ADR-RES > 100 µM | Hs-578T > 100 µM

CC1CC2C3CC(F)C4=CC(=O)C=CC4(C)C3(F)C(O)CC2(C)C1(O)C(=O)COC(=O)C(C)(C)C (stereo not drawn)
inactive: DMS-114 > 100 µM | M19-MEL > 100 µM | SNB-78 27.5 µM

O=C(c1ccccc1)c1cn(/N=C\c2ccccc2)c(=O)nc1-c1ccccc1
inactive: DMS-114 > 100 µM | LXFL 529 > 100 µM | M19-MEL > 100 µM | SNB-78 > 100 µM

Cn1cnnc1Sc1c([N+](=O)[O-])nc(-c2ccc([N+](=O)[O-])cc2)n1C
inactive: RXF 631 17.7 µM | DMS-114 17.9 µM | LXFL 529 13.8 µM | M19-MEL 17.8 µM | SNB-78 18.3 µM

O=C1c2ccccc2C(=O)c2c1ccc1c2N=C(c2ccc(F)cc2)CC(c2ccc(Cl)c(Cl)c2)N1 (stereo not drawn)
inactive: DMS-114 10.1 µM | LXFL 529 16 µM | M19-MEL 17.2 µM | SNB-78 19.2 µM

O=C(O)c1cccc2cccc(-c3c4ccc(=O)cc-4oc4cc(O)ccc34)c12
inactive: MCF7 > 100 µM | DU-145 > 100 µM | NCI/ADR-RES > 100 µM | Hs-578T 93.1 µM

O=C(O)CN1CCCC(Cc2c[nH]c3ccccc23)C1 (stereo not drawn)
inactive: DU-145 > 100 µM | NCI/ADR-RES > 100 µM | Hs-578T > 100 µM

CCC1OC(=O)C(C)C(OC2CC(C)(O)C(O)C(C)O2)C(C)C(O)C(C)(O)CC(C)C(=O)C(C)C(O)C1C (stereo not drawn)
inactive: MCF7 > 300 µM | DMS-114 > 300 µM | NCI/ADR-RES > 300 µM | M19-MEL > 300 µM | SNB-78 204 µM

O=C1C[C@H](c2ccccc2)C2(C(=O)c3ccccc3C2=O)[C@@H](c2ccccc2)C1
inactive: MCF7 37.2 µM | DU-145 48.6 µM | NCI/ADR-RES 23.2 µM | Hs-578T 17.1 µM

CC1OC(OC2C(OC(=O)[C@@H]3CC(C)(C)C[C@H]4C5=CC[C@@H]6[C@@]7(C)C[C@H](O)[C@H](OC8OC(CO)C(O)C(O)C8O)[C@@](C)(CO)[C@@H]7[C@H](O)C[C@@]6(C)[C@]5(C)CC[C@@]34C)OCC(O)C2O)C(O)C(O)C1O (stereo partly drawn)
inactive: MCF7 > 7.5 µM | DU-145 > 7.5 µM | NCI/ADR-RES > 7.5 µM | Hs-578T > 7.5 µM

O=C(/C=C/c1ccc(Cl)c(Cl)c1)C1CCC(Cl)CC1 (stereo not drawn)
inactive: RXF 631 18.5 µM | DMS-114 16.3 µM | LXFL 529 18.2 µM | M19-MEL 17.3 µM | SNB-78 21.9 µM

O=C1Nc2ccc(S(=O)(=O)N(CCO)CCO)cc2/C1=C1/Nc2ccccc2C1=O
inactive: DU-145 13.3 µM | NCI/ADR-RES > 100 µM | Hs-578T > 100 µM
active: MCF7 0.615 µM

Cc1cc(NS(=O)(=O)c2ccc(Nc3c4ccccc4nc4c(C(=O)N5CCN(CCO)CC5)ccc(Cl)c34)cc2)no1
inactive: RXF 631 83.9 µM | DMS-114 > 100 µM | M19-MEL > 100 µM

Nc1ccc2cc3ccc(N)cc3nc2c1 [PROFLAVINE SULFATE]
active: MCF7 0.638 µM | LXFL 529 0.953 µM | SNB-78 1.12 µM
inactive: RXF 631 1.12 µM | DMS-114 1.21 µM | DU-145 2.21 µM | NCI/ADR-RES 1.58 µM | M19-MEL 1.79 µM | Hs-578T 2.57 µM

C=C1C(=O)OC2CC(C)C3C4OC4C(O)C3(C)C(O)C12 (stereo not drawn)
inactive: MCF7 20.7 µM | DMS-114 12.5 µM | NCI/ADR-RES 20.7 µM | M19-MEL 21.1 µM | SNB-78 13.5 µM

N=C(N)C1CN(CCCCCCCCCCN2CC(C(=N)N)C(O)=NC2=O)C(=O)N=C1O (stereo not drawn)
inactive: MCF7 > 10 µM | NCI/ADR-RES > 10 µM | Hs-578T > 10 µM
